From paper PMC10041525, “New Dual Inhibitors of Bacterial Topoisomerases with Broad-Spectrum Antibacterial Activity and In Vivo Efficacy against Vancomycin-Intermediate Staphylococcus aureus” (Journal of Medicinal Chemistry, 2023)
Converted amounts (≈) assume the structure as drawn. “And” between values parts separate entries of the source, which are not always exact repeats. Equal entries are not always repeated. Where two headings read alike, the source gives them in different places.

How the values were obtained:
[1] = system: Chinese hamster ovary K1 cells; assay: in vitro micronucleus test; settings: with S9, 150 µM
[2] = system: Chinese hamster ovary K1 cells; settings: 150 µM
[3] = system: S. pneumoniae ATCC 49619; design: method as in earlier work; settings: QC range for S. pneumoniae ATCC 49619, ref CLSI; cited from earlier work
[4] = system: E. coli ATCC 25922; design: method as in earlier work; settings: QC range for E. coli ATCC 25922, ref CLSI; cited from earlier work
[5] = system: N. gonorrhoeae ATCC 49226; assay: IHMA QC MIC; assay type: cell-based; settings: QC strain N. gonorrhoeae ATCC 49226, test date 2021-11-18
Description: (§1) Supplement jm2c01905_si_004.xlsx, sheet "QC" | column: MIC [µg/mL]

[6] = system: H. influenzae ATCC 49247; design: method as in earlier work; settings: QC range for H. influenzae ATCC 49247, ref CLSI; cited from earlier work
[7] = system: N. gonorrhoeae ATCC 49226; design: method as in earlier work; settings: QC range for N. gonorrhoeae ATCC 49226, ref CLSI; cited from earlier work
[8] = system: Neisseria gonorrhoeae (n = 12); assay: MIC broth microdilution at IHMA Europe; assay type: cell-based
[9] = system: E. faecalis ATCC 29212; assay: IHMA QC MIC; assay type: cell-based
Description: as §1

[10] = system: H. influenzae ATCC 49766; assay: IHMA QC MIC; assay type: cell-based
Description: as §1

[11] = system: S. pneumoniae ATCC 49619; assay: IHMA QC MIC; assay type: cell-based
Description: as §1

[12] = system: H. influenzae ATCC 49247; assay: IHMA QC MIC; assay type: cell-based
Description: as §1

[13] = system: S. pneumoniae (n = 12); assay: MIC broth microdilution at IHMA Europe; assay type: cell-based
[14] = system: E. coli ATCC 25922; assay: IHMA QC MIC; assay type: cell-based
[15] = system: E. faecalis ATCC 29212; design: method as in earlier work; settings: QC range for E. faecalis ATCC 29212, ref CLSI; cited from earlier work
[16] = system: Haemophilus influenzae (n = 14); assay: MIC broth microdilution at IHMA Europe; assay type: cell-based, H. influenzae
[17] = system: E. faecium (n = 13); assay: MIC broth microdilution at IHMA Europe; assay type: cell-based
[18] = system: P. aeruginosa ATCC 27853; assay: IHMA QC MIC; assay type: cell-based

## c1ccc2c(c1)cc1ccc3cccc4ccc2c1c34 [Benzo[a]pyrene]
[1]
  No. binucleate cells: 1702
[2]
  % Cytostasis: 8.3%

## COCC1=C(C(=O)O)N2C(=O)[C@@H](NC(=O)/C(=N\OC)c3csc(N)n3)[C@H]2SC1 [Cefpodoxime, cefpodoxime]
[3]
  MIC, CLSI Range: 0,03 - 0,12 µg/mL
[4]
  MIC, CLSI Range: 0,25 - 1 µg/mL
[5]; Neisseria gonorrhoeae, ATCC49226, read-out: MIC
  MIC: 0.06 µg/mL (≈ 0.14 µM)
[6]
  MIC, CLSI Range: 0,25 - 1 µg/mL
[7]
  MIC, CLSI Range: 0,03 - 0,12 µg/mL
[8]; MIC 0.015 µg/mL
  Cumulative % at MIC: 8.3%
  No. of isolates at MIC: 1
[8]; MIC 0.03 µg/mL
  Cumulative % at MIC: 16.7%
  No. of isolates at MIC: 1
[8]; MIC 0.06 µg/mL
  Cumulative % at MIC: 41.7%
  No. of isolates at MIC: 3
[8]; MIC 0.5 µg/mL
  Cumulative % at MIC: 66.7%
  No. of isolates at MIC: 1
[8]; MIC 1 µg/mL
  Cumulative % at MIC: 83.3%
  No. of isolates at MIC: 2
[8]; MIC 2 µg/mL
  Cumulative % at MIC: 100.0%
  No. of isolates at MIC: 2
[8]; MIC […]
  Cumulative % at MIC: 58.3%
  No. of isolates at MIC: 2
[8]; Neisseria gonorrhoeae, isolate IHMA 1123853, read-out: MIC
  MIC: 1 µg/mL (≈ 2.34 µM)
[8]; Neisseria gonorrhoeae, isolate IHMA 1130935, read-out: MIC
  MIC: 0.03 µg/mL (≈ 0.0702 µM)
[8]; Neisseria gonorrhoeae, isolate IHMA 1130989, read-out: MIC
  MIC: 0.015 µg/mL (≈ 0.0351 µM)
[8]; Neisseria gonorrhoeae, isolate IHMA 1130991, read-out: MIC
  MIC: 1 µg/mL (≈ 2.34 µM)
[8]; Neisseria gonorrhoeae, isolate IHMA 1137292, read-out: MIC
  MIC: 0.5 µg/mL (≈ 1.17 µM)
[8]; Neisseria gonorrhoeae, isolate IHMA 1145734, read-out: MIC
  MIC: 0.25 µg/mL (≈ 0.585 µM)
[8]; Neisseria gonorrhoeae, isolate IHMA 1145735, read-out: MIC
  MIC: 0.06 µg/mL (≈ 0.14 µM)
[8]; Neisseria gonorrhoeae, isolate IHMA 1165897, read-out: MIC
  MIC: 0.06 µg/mL (≈ 0.14 µM)
[8]; Neisseria gonorrhoeae, isolate IHMA 1194748, read-out: MIC
  MIC: 0.06 µg/mL (≈ 0.14 µM)
[8]; Neisseria gonorrhoeae, isolate IHMA 1194750, read-out: MIC
  MIC: 0.25 µg/mL (≈ 0.585 µM)
[8]; Neisseria gonorrhoeae, isolate IHMA 1546199, read-out: MIC
  MIC: 2 µg/mL (≈ 4.68 µM)
[8]; Neisseria gonorrhoeae, isolate IHMA 1546215, read-out: MIC
  MIC: 2 µg/mL (≈ 4.68 µM)

## penicillin
[3]
  MIC, CLSI Range: 0,25 - 1 µg/mL
[9]; QC strain E. faecalis ATCC 29212, test date 2021-11-11
  MIC: 2 µg/mL
[9]; QC strain E. faecalis ATCC 29212, test date 2021-11-26
  MIC: 2 µg/mL
[10]; QC strain H. influenzae ATCC 49766, test date 2021-11-11
  MIC: 0.25 µg/mL
[10]; QC strain H. influenzae ATCC 49766, test date 2021-11-26
  MIC: 0.25 µg/mL
[11]; QC strain S. pneumoniae ATCC 49619, test date 2021-11-11
  MIC: 0.25 µg/mL
[11]; QC strain S. pneumoniae ATCC 49619, test date 2021-11-26
  MIC: 0.25 µg/mL
[5]
  MIC: 0.25 µg/mL
[12]; QC strain H. influenzae ATCC 49247, test date 2021-11-11
  MIC: 4 µg/mL and 8 µg/mL
[12]; QC strain H. influenzae ATCC 49247, test date 2021-11-26
  MIC: 4 µg/mL
[13]; MIC 0.5 µg/mL
  Cumulative % at MIC: 25.0%
  No. of isolates at MIC: 2
[13]; MIC 1 µg/mL
  Cumulative % at MIC: 41.7%
  No. of isolates at MIC: 2
[13]; MIC 2 µg/mL
  Cumulative % at MIC: 83.3%
  No. of isolates at MIC: 5
[13]; MIC […] µg/mL
  Cumulative % at MIC: 100.0%
  No. of isolates at MIC: 2
[13]; MIC ≤0.03 µg/mL
  Cumulative % at MIC: 8.3%
  No. of isolates at MIC: 1
[13]; S. pneumoniae IHMA N° 1775387
  MIC: 2 µg/mL
[13]; S. pneumoniae IHMA N° 1776057
  MIC: 1 µg/mL
[13]; S. pneumoniae IHMA N° 1785617
  MIC: 4 µg/mL
[13]; S. pneumoniae IHMA N° 1800765
  MIC: 0.5 µg/mL
[13]; S. pneumoniae IHMA N° 1811259
  MIC: 1 µg/mL
[13]; S. pneumoniae IHMA N° 1831562
  MIC: ≤0,03 µg/mL
[13]; S. pneumoniae IHMA N° 1902609
  MIC: 2 µg/mL
[13]; S. pneumoniae IHMA N° 1979675
  MIC: 2 µg/mL
[13]; S. pneumoniae IHMA N° 1991963
  MIC: 2 µg/mL
[13]; S. pneumoniae IHMA N° 2057487
  MIC: 2 µg/mL
[13]; S. pneumoniae IHMA N° 2073087
  MIC: 4 µg/mL
[13]; S. pneumoniae IHMA N° 2117109
  MIC: 0.5 µg/mL
[14]; QC strain E. coli ATCC 25922, test date 2021-11-11
  MIC: 32 µg/mL and 16 µg/mL
[14]; QC strain E. coli ATCC 25922, test date 2021-11-26
  MIC: 32 µg/mL
[15]
  MIC, CLSI Range: 1 to 4 µg/mL
[7]
  MIC, CLSI Range: 0,25 - 1 µg/mL
[16]; H. influenzae IHMA N° 1227715
  MIC: 32 µg/mL
[16]; H. influenzae IHMA N° 1241620
  MIC: 16 µg/mL
[16]; H. influenzae IHMA N° 1244149
  MIC: 32 µg/mL
[16]; H. influenzae IHMA N° 1249803
  MIC: 4 µg/mL
[16]; H. influenzae IHMA N° 1254355
  MIC: 4 µg/mL
[16]; H. influenzae IHMA N° 1258580
  MIC: 16 µg/mL
[16]; H. influenzae IHMA N° 1262734
  MIC: 16 µg/mL
[16]; H. influenzae IHMA N° 1272723
  MIC: 16 µg/mL
[16]; H. influenzae IHMA N° 1286846
  MIC: 16 µg/mL
[16]; H. influenzae IHMA N° 1337530
  MIC: 32 µg/mL
[16]; H. influenzae IHMA N° 1440085
  MIC: 16 µg/mL
[16]; H. influenzae IHMA N° 1479509
  MIC: 16 µg/mL
[16]; H. influenzae IHMA N° 1952952
  MIC: 8 µg/mL
[16]; H. influenzae IHMA N° 2047461
  MIC: >32 µg/mL
[16]; MIC […] µg/mL
  Cumulative % at MIC: 71.4%
  No. of isolates at MIC: 7
[16]; MIC 32 µg/mL
  Cumulative % at MIC: 92.9%
  No. of isolates at MIC: 3
[16]; MIC >32 µg/mL
  Cumulative % at MIC: 100.0%
  No. of isolates at MIC: 1
[17]; E. faecium IHMA N° 1764866
  MIC: >32 µg/mL
[17]; E. faecium IHMA N° 1765436
  MIC: >32 µg/mL
[17]; E. faecium IHMA N° 1765746
  MIC: >32 µg/mL
[17]; E. faecium IHMA N° 1893573
  MIC: >32 µg/mL
[17]; E. faecium IHMA N° 1893846
  MIC: >32 µg/mL
[17]; E. faecium IHMA N° 1893942
  MIC: >32 µg/mL
[17]; E. faecium IHMA N° 1894055
  MIC: >32 µg/mL
[17]; E. faecium IHMA N° 1897027
  MIC: >32 µg/mL
[17]; E. faecium IHMA N° 1897101
  MIC: >32 µg/mL
[17]; E. faecium IHMA N° 1904592
  MIC: >32 µg/mL
[17]; E. faecium IHMA N° 2075051
  MIC: >32 µg/mL
[17]; E. faecium IHMA N° 2077718
  MIC: >32 µg/mL
[17]; E. faecium IHMA N° 2083787
  MIC: >32 µg/mL
[17]; MIC >32 µg/mL
  Cumulative % at MIC: 100.0%
  No. of isolates at MIC: 13
[18]; QC strain P. aeruginosa ATCC 27853, test date 2021-11-11
  MIC: >32 µg/mL and 32 µg/mL
[18]; QC strain P. aeruginosa ATCC 27853, test date 2021-11-26
  MIC: >32 µg/mL
[8]; MIC 0.5 µg/mL
  Cumulative % at MIC: 33.3%
  No. of isolates at MIC: 2
[8]; MIC 1 µg/mL
  Cumulative % at MIC: 50.0%
  No. of isolates at MIC: 2
[8]; MIC 2 µg/mL
  Cumulative % at MIC: 75.0%
  No. of isolates at MIC: 3
[8]; MIC >16 µg/mL
  Cumulative % at MIC: 100.0%
  No. of isolates at MIC: 2
[8]; MIC […]
  Cumulative % at MIC: 16.7%
  No. of isolates at MIC: 2
[8]; MIC […] µg/mL
  Cumulative % at MIC: 83.3%
  No. of isolates at MIC: 1
[8]; isolate IHMA 1123853
  MIC: 4 µg/mL
[8]; isolate IHMA 1130935
  MIC: 0.25 µg/mL
[8]; isolate IHMA 1130989
  MIC: 0.25 µg/mL
[8]; isolate IHMA 1130991
  MIC: 2 µg/mL
[8]; isolate IHMA 1137292
  MIC: 1 µg/mL
[8]; isolate IHMA 1145734
  MIC: 2 µg/mL
[8]; isolate IHMA 1145735
  MIC: >16 µg/mL
[8]; isolate IHMA 1165897
  MIC: >16 µg/mL
[8]; isolate IHMA 1194748
  MIC: 0.5 µg/mL
[8]; isolate IHMA 1194750
  MIC: 0.5 µg/mL
[8]; isolate IHMA 1546199
  MIC: 2 µg/mL
[8]; isolate IHMA 1546215
  MIC: 1 µg/mL
